Assay [1] addresses T1, vanilloid receptor VR1 (capsaicin receptor) (Rattus norvegicus, UniProt O35433).
T1 construct: isolated from the spinal cord of male Sprague Dawley rats (breeder: Charles River Deutschland, 32699 Extertal) and used for preparation of the membrane; from tissue; host or cells: rat spinal cord (cervical region and one third of the thoracic region) membranes
Briefly: Determination of affinity for vanilloid receptor VR1 ([3H] resiniferatoxin binding, rat spinal cord membranes). The settings on record: for inhibition at 10 µM: method (a), read-out: % VR1 binding % inhibition at 10 μM [2]. Details: species or system Sprague Dawley rats. From the text:
This method was developed on the basis of the publication by Acs et al., J. Neurochem. 65, 301-308 (1995). The corresponding description is hereby introduced as a reference and is deemed to be part of the disclosure.
• Sprague Dawley rats weighing between 150-300 g • (breeder: Charles River Deutschland, 32699 Extertal, Germany) • HEPES (item no. H-3375, SIGMA) • NaCl (item no. 6400.1000; Merck) • KCl (item no.: 4936.1000; Merck) • HCl (item no.: 1.00317; Merck) • [^3H] resiniferatoxin ([^3H] RTX) (item no.: NET-1132, Perkin-Elmer) • Resiniferatoxin (RTX, cold) (item no.: 550-179-M001, Alexis) • D-Glucose (item no.: 1.08337.1000, Merck) • Sucrose (item no.: S-9378, Sigma) • α1-acid glycoprotein (item no.: G-3643, Sigma) • BSA (bovine serum albumin, item no.: A-2153, Sigma) • GF/B filter mats (Brandel Inc., cat. no. FP 100, size: 2¼″×12¼″)
Buffer: (Concentration values in brackets in each case in mM)
• HEPES (10); KCl (5); NaCl (5.8); CaCl (0.75); MgCl (2.0); D-glucose (12); • sucrose (137). The pH value is adjusted at room temperature using 20% strength HCl. B. Preparation of Membranes
The cervical region and one third of the following thoracic region is isolated from the spinal cord of male Sprague Dawley rats (breeder: Charles River Deutschland, 32699 Extertal) and used for preparation of the membrane. After the combined tissue is weighed, it is homogenized in ice-cooled buffer of the above-stated composition. 20 ml of buffer were used per 1 g of tissue (1:20 weight/volume). Homogenisation performed with a homogeniser from Kinematica, model Polytron PT-3000 with PT-DA-3012/2 drive unit. The spinal cord tissue is disrupted within 60 seconds in the cold buffer with ice cooling at a rotational speed of 6000 rpm. The material is then centrifuged for 10 minutes at 1000 g and +4° C. and the resultant precipitate discarded. The […] in the same volume of buffer of the above-stated composition. The material is then centrifuged for 40 minutes at 48,000 g and +4° C. and the supernatant discarded. The resultant precipitate is resuspended in 30 ml of buffer of the above-stated composition and used in this form in the vanilloid receptor (VR1) assay.
Incubation is performed in the water bath for one hour at 37° C. The samples are then placed in an ice bath for 15 minutes. In order to minimise nonspecific adsorption of the RTX, 100 μg of α1-acid glycoprotein (in 50 μl of buffer) are added to each incubation tube. The samples are then thoroughly mixed on a vortex shaker and left to stand for 10 minutes. The batches are then filtered with the assistance of the model M-24R “Brandel Cell Harvester” through a GF/B glass fiber filter mat which has been presoftened in tris buffer. The filter is then rinsed through 3 times with 4 ml portions of ice-cold HEPES buffer of the above-stated composition for each sample. The filters are transferred into scintillation counter vessels, each is combined with a 10 ml portion of “Ready Protein” scintillating material, and the vessels are closed with screw caps. The vessels are shaken on the vortex shaker and left to stand for at least 15 hours in the fume cupboard. The samples are then measured on the β-counter (model 1409 Wallac, Perkin Elmer, 63110 Rogau-Jügesheim, Germany).

The target in assay [2] is T2, cannabinoid receptor 1 (CB1) (Rattus norvegicus, UniProt P20272).
T2 construct: Tissue: rat cerebellum; from tissue; host or cells: rat cerebellum membranes
T2 sequence (P20272 whole entry): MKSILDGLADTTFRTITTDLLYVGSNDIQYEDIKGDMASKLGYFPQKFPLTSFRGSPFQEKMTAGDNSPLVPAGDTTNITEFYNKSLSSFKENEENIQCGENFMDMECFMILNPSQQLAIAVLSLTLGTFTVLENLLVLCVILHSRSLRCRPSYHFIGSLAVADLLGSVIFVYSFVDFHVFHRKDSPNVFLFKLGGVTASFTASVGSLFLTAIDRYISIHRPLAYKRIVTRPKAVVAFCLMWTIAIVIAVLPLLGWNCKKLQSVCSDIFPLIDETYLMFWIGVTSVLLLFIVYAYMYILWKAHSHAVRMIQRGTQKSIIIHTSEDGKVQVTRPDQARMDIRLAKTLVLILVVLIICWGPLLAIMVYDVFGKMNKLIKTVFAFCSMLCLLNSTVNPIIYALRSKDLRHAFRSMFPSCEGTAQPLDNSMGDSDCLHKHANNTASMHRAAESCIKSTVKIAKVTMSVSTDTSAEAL
Briefly: Determination of affinity for cannabinoid receptor 1 (CB1) ([3H] WIN55,212-2 binding, rat cerebellum membranes). Details: species or system Sprague Dawley rats. The settings on record: method (c). From the text:
(c) Determination of Affinity for Cannabinoid Receptor 1 (CB1)
The method was developed on the basis of the publication of D'Ambra et al, J. Med. Chem. 35, 124-135 (1992), but at variance therewith the ligand stated below is used. The disclosure of this article is hereby incorporated by reference.
• Sprague Dawley rats weighing between 150-350 g • (breeder: Charles River Deutschland, 32699 Extertal, Germany) • Ligand: [^3H] WIN55, 212-2; Perkin Elmer, item. no. NET 1058 • Ligand cold: WIN 55, 212-2 mesylate; Tocris; item. no. 1038 • HEPES: Sigma, item no. H-3375 • BSA: Sigma, item no. A-2153 • GF/B filter mats (Brandel Inc., cat. no. FP 100, size 2¼″×12¼″) • Ready Protein scintillating material (item no. 586604, Beckmann, 85716 Unterschlei ? heim) • Tissue: rat cerebellum • Tissue & incubation buffer: 20 mM HEPES pH 7.0. • Filtration buffer: 20 mM HEPES pH 7.0 containing 0.5 mg of BSA/ml which prevents adsorption. • Filter mat softening buffer: 20 mM HEPES pH 7.0 containing 5 mg of BSA/ml. B. Preparation of Cerebellum:
20 ml of ice-cooled buffer are used per 1 g of brain tissue. The brain tissue is disrupted within 30 seconds in the cold buffer with ice cooling at a rotational speed of 6000 rpm using a homogeniser from Kinematica, model Polytron PT-3000 with PT-DA-3012/2 drive unit. The resultant homogenate is then diluted with cold buffer to a ratio of 100 ml/g of tissue. Centrifugation is then performed for 15 minutes at 49,000 g and 4° C. Once centrifugation is complete, the supernatants are decanted and the precipitates resuspended in fresh, cold buffer. Acceptable suspension of the pellets is obtained at only 1000 rpm in the homogeniser with ice cooling and a processing time of at most 60 seconds. This last centrifugation step is repeated twice more (in each case washed with 20 mM HEPES pH 7.0). The precipitated is then suspended with buffer in a ratio of 1:120 (weight/volume).
Incubation is performed for 90 minutes at room temperature, i.e. 25° C. The batches are then rapidly suction filtered with the assistance of the Brandel Cell Harvester (model M-24-R, Adi Hassel, 80809 Munich, Germany) through GF/B filter mats, which have previously been softened in HEPES buffer pH 7.0 containing 5 mg/ml of BSA, and rewashed with 20 ml of filtration buffer (ice-cooled). After transferring the filters into scintillation vials and adding a 10 ml portion of scintillation liquid (Ready Protein) to each and then leaving to stand for 15 hours, the samples are measured in the scintillation counter (Perkin Elmer, model Wallac 1409).

Assay [3] concerns the target T3, vanilloid receptor (VR1) (Rattus norvegicus, UniProt O35433).
T3 construct: expressed in transfected cells; host or cells: CHO K1 cells (ECACC)
Briefly: Functional investigations on vanilloid receptor (VR1): Ca2+ influx FLIPR assay in CHO K1 cells stably transfected with the VR1 gene. Format: cell-based, rats. The settings on record: for inhibition at 10 µM: CHO-K1, read-out: % Inhibition [1]; for % Activation [1]: method (b), substance 10 μM, relative to Ca2+ signal after 10 μM capsaicin, means from 4–5 measurements. From the text: (b) Functional Investigations on Vanilloid Receptor (VR1)
The agonistic or antagonistic action of the substances to be investigated on the vanilloid receptor (VR1) may be determined with the following assay. According to this assay, the influx of Ca^2+ through the channel is quantified with the assistance of a Ca^2+-sensitive dye (type Fluo4, Molecular Probes Europe BV, Leiden, Netherlands) in a Fluorescent Imaging Plate Reader (FLIPR, Molecular Devices, Sunnyvale, USA).
Chinese hamster ovary cells (CHO K1 cells, European Collection of Cell Cultures (ECACC), Great Britain) are stably transfected with the VR1 gene. For functional investigations, these cells are plated out onto poly-D-lysine-coated, black 96 well plates with a clear bottom (BD Biosciences, Heidelberg, Germany) at a density of 25,000 cells/well. The cells are incubated overnight at 37° C. and 5% CO2 in a culture medium (Ham's Nutrient Mixture F12, 10 vol. % FCS (foetal calf serum), 18 μg/mL L-proline). On the following day, the cells are incubated with Fluo4 (Fluo4 2 μM, Pluronic F127 0.01 vol. %, Molecular Probes in HBSS (Hank's buffered saline solution), Gibco Invitrogen GmbH, Karlsruhe, Germany) for 30 minutes at 37° C. The plates are then washed 3 times with HBSS buffer and, after a further 15 minutes' incubation at room temperature, used for Ca^2+ measurement in the FLIPR. Ca^2+-dependent fluorescence is here measured before and after addition of the substances to be investigated (wavelength λex=488 nm, λem=540 nm). Quantification proceeds by measuring the highest fluorescence intensity (FC, fluorescence counts) over time.
The FLIPR protocol comprises 2 additions of substance. […] The percentage inhibition in comparison with the maximum achievable inhibition with 10 μM capsazepine is calculated.

Counter-ions that a name gives are not always drawn. Like-named read-outs stand apart in the source and are kept apart here.

T3 sequence (O35433 whole entry): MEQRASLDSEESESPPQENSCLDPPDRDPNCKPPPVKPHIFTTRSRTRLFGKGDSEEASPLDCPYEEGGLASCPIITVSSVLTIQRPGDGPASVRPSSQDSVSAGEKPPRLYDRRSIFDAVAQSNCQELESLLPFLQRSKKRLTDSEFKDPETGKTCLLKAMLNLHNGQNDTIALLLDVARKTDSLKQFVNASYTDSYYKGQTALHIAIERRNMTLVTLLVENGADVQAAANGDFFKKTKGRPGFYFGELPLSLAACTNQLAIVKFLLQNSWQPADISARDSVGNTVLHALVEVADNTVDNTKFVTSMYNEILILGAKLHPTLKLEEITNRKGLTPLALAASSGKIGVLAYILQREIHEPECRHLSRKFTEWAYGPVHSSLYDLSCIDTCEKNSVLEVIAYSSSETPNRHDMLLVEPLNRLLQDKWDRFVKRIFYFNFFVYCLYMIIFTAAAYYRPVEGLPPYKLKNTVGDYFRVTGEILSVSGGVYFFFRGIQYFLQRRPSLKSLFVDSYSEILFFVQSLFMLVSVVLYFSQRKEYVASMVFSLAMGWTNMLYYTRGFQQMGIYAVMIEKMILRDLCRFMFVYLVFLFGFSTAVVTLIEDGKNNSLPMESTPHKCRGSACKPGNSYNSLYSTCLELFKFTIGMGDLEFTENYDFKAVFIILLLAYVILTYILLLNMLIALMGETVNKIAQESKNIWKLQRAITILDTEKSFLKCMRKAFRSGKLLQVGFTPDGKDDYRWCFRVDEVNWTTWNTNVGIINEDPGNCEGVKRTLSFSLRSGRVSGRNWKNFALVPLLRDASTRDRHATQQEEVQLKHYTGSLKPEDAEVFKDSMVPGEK
T1 sequence (O35433 whole entry): as above

The term IC50 denotes the concentration that gives 50% inhibition. Consider `CCCCC/C=C\C/C=C\C/C=C\C/C=C\CCCC(=O)NCc1ccc(O)c(OC)c1` [Arvanil], for which the IC50 in assay [1] ([3H] RTX 100 pM, rat spinal cord membranes, comparison substances, read-out: IC50 (VR-1 receptor affinity, reference data)) is 8.9 µM.
In assay [1], `COc1cc(CNC(=O)CCCCCCC(C)C)ccc1O` [Dihydrocapsaicin] came in with a half-maximal inhibitory concentration (IC50) of 2.72 µM.
The inhibition is the relative decrease from the control value, in per cent. For the compound `Cc1cc(C)n2c(NC(C)(C)CC(C)(C)C)c(-c3ccsc3)nc2c1` [Example 1, (5,7-Dimethyl-2-thiophen-3-yl-imidazo[1,2-a]pyridin-3-yl)-(1,1,3,3-tetramethylbutyl)-amine hydrochloride], the results for the inhibition at 10 µM in assay [1] and in assay [2] were 42.5% and 43%, respectively.
Regarding `CC(C)(C)CC(C)(C)Nc1c(-c2ccsc2)nc2ccccn12` [Example 2, (1,1,3,3-Tetramethylbutyl)-(2-thiophen-3-yl-imidazo-[1,2-a]pyridin-3-yl)amine hydrochloride], the inhibition at 10 µM was determined as 36% in assay [1], 32.2% in assay [3] and 47% in assay [2].
On to `Cc1ccn2c(NC(C)(C)CC(C)(C)C)c(-c3ccsc3)nc2c1.Cl` [Example 3, (7-Methyl-2-thiophene-3-yl-imidazo[1,2-a]pyridin-3-yl)-(1,1,3,3-tetramethylbutyl)-amine hydrochloride], for which, in assay [3], the inhibition at 10 µM came to 65% and the “% Activation [1]” value is 30.1%. In assay [2], this compound returned an inhibition at 10 µM of 35.5%.
As for `CC(C)(C)CC(C)(C)Nc1c(-c2ccoc2)nc2ccccn12` [Example 4, (2-Furan-3-yl-imidazo[1,2-a]pyridin-3-yl)-(1,1,3,3-tetramethylbutyl)amine hydrochloride], the inhibition at 10 µM in assay [3] was 44.1%; in assay [2] it was 35%.
As to `Cc1ccn2c(NC(C)(C)CC(C)(C)C)c(-c3ccoc3)nc2c1.Cl` [Example 5, (2-Furan-3-yl-7-methyl-imidazo[1,2-a]pyridin-3-yl)-(1,1,3,3-tetramethylbutyl)amine hydrochloride], the inhibition at 10 µM in assay [3] was determined as 80.7%; in assay [2], 32.7%. Moreover, in assay [3], the “% Activation [1]” value is 32.4%.
The compound `CC1(C)C[C@H]2C=C(C=O)[C@]3(C=O)C[C@]3(C)[C@H]2C1` [Isovelleral] returned an IC50 in assay [1] of 7.22 µM.
`C=C(C)[C@]12C[C@@H](C)[C@@]34O[C@](Cc5ccccc5)(O[C@@H]1[C@@H]3C=C(COC(=O)Cc1ccc(O)c(OC)c1)C[C@]1(O)C(=O)C(C)=C[C@@H]41)O2` [Resiniferatoxin] registered an IC50 in assay [1] of 0.00021 µM.

The record behind these values is patent publication US7592351B2, “Substituted imidazo[1,2-a]pyridine compounds and pharmaceutical preparations containing substituted imidazo[1,2-a]pyridine compounds” (Gruenenthal GmbH, priority 2004, dated 2009).
